Tests used:
KMS-12-BM cells = experiment: Tumor growth study in KMS-12-BM mouse model; assay type: in vivo; settings: for tumor growth inhibition (TGI): KMS-12-BM model
Experimental: Tumor volumes were evaluated twice per week to calculate tumor volume over time, and mice were weighed twice per week as a surrogate for signs of toxicity. […] Td and Cd are the mean tumor volumes of the treated and control animals, and T0 and C0 are the mean tumor volumes of the treated and control animals at the start of the experiment.
(§1) Tumor volumes were evaluated twice per week to calculate tumor volume over time, and mice were weighed twice per week as a surrogate for signs of toxicity. Tumor growth inhibition (TGI) was calculated using the following equation TGI=(1−(Td−T0)/(Cd−C0))×100%. Td and Cd are the mean tumor volumes of the treated and control animals, and T0 and C0 are the mean tumor volumes of the treated and control animals at the start of the experiment.
as §1

OPM-2 cells = experiment: Tumor growth study in OPM-2 mouse model; assay type: in vivo; settings: OPM-2 subcutaneous model, 100 mg/kg oral gavage once a day, after 10 days
Experimental: It is understood that compound activity in MM models is predictive of activity in amyloidosis (e.g. AL amyloidosis) models and/or patients.
Mice were inoculated with OPM-2 cells subcutaneously on the right flank with the single cell suspension of 95% viable tumor cells (1×10^7) in 200 μL RPMI-1640 Matrigel mixture (1:1 ratio) without serum for the tumor development. The treatment was started when the mean tumor size reached approximately 200 mm^3, with individual tumor size ranging from 180-220 mm^3. Animals were randomly distributed into treatment groups of 10 animals each and dosed with either vehicle (i.e. “Vehicle A”) or a compound of Formula (A) having the structure
(“Compound (A)”) at 100 mg/kg administered by oral gavage once a day. Tumor volumes were evaluated twice per week to calculate tumor volume over time, and mice were weighed twice per week as a surrogate for signs of toxicity. Tumor growth inhibition (TGI) efficiency was calculated using the following equation TGI=(1−(Td−T0)/(Cd−C0))×100%. Td and Cd are the mean tumor volumes of the treated and control animals, and T0 and C0 are the mean tumor volumes of the treated and control animals at the start of the experiment.

CC1(C)CCC(CN2CCN(c3ccc(C(=O)NS(=O)(=O)c4ccc(NC[C@H]5CC[C@](C)(O)CC5)c([N+](=O)[O-])c4)c(Oc4cnc5[nH]ccc5c4)c3)CC2)=C(C23CC(C(F)F)(C2)C3)C1 [Compound (A)]
tumor growth inhibition (TGI) (KMS-12-BM cells; single agent 50 mg/kg p.o. qd x21, day 14): 48.7% | TGI efficacy (tumor growth inhibition) (KMS-12-BM cells; KMS-12-BM subcutaneous model, single agent 100 mg/kg p.o. qd, day 14): 62.8% | TGI efficacy (tumor growth inhibition) (OPM-2 cells): 46%

C[C@@H]1C[C@H]2[C@@H]3CCC4=CC(=O)C=C[C@]4(C)[C@@]3(F)[C@@H](O)C[C@]2(C)[C@@]1(O)C(=O)CO [dexamethasone, reference compound]
tumor growth inhibition (TGI) (KMS-12-BM cells; single agent 1 mg/kg IP 5 days on 2 days off, day 14): 22.5%

CC(C)C[C@H](NC(=O)[C@H](Cc1ccccc1)NC(=O)c1cnccn1)B(O)O [bortezomib, reference compound]
tumor growth inhibition (TGI) (KMS-12-BM cells; single agent 0.5 mg/kg IP BIW, day 14): 46.5%

Source: patent US20230210846A1, “TREATMENT FOR AMYLOIDOSIS” (Zeno Management,Inc., priority 2020, published 2023)
